Structures can show the parent of a compound that is named as a salt.
Tests used:
[1] = molecular target: T1, human bradykinin 1 receptor (B1R) (Homo sapiens, UniProt P46663); assay: FLIPR Ca2+ assay, B1R antagonism, human; type: cell-based; details: 10 μM test substance; CHO K1 cells with human B1R gene (hB1R cells); Lys-Des-Arg9-bradykinin at EC80; % inhibition compared with the maximum achievable inhibition; read-out: B1R antagonism, human [10 μM] % inhibition
T1 construct: expressed in transfected cells
T1 sequence (P46663 1-353): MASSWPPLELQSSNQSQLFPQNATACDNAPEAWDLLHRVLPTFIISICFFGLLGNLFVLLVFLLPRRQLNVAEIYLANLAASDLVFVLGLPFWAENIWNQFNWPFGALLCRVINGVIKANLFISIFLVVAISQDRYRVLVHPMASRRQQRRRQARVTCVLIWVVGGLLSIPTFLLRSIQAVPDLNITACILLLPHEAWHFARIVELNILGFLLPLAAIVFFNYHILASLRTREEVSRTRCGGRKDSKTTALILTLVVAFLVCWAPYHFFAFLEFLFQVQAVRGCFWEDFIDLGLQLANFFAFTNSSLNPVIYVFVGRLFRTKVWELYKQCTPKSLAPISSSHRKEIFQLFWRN
Summary of the method: (§1)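 CHO K1 cells stably expressing human or rat B1R, loaded with Fluo-4 and read in FLIPR (ex 488, em 540 nm, peak fluorescence). Test compound 10 μM preincubated 10-20 min, then EC80 agonist added (Lys-Des-Arg9-bradykinin for human, Des-Arg9-bradykinin for rat); % inhibition relative to maximum achievable inhibition.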

[2] = molecular target: T2, bradykinin 1 receptor (B1R) of the rat (Rattus norvegicus, UniProt P97583); assay: FLIPR Ca2+ assay, B1R antagonism, rat; type: cell-based; details: CHO-K1, 10 μM test substance; CHO K1 cells with rat B1R gene (rB1R cells); Des-Arg9-bradykinin at EC80; % inhibition compared with the maximum achievable inhibition; read-out: B1R antagonism, rat [10 μM] % inhibition
T2 construct: expressed in transfected cells
T2 sequence (P97583 1-337): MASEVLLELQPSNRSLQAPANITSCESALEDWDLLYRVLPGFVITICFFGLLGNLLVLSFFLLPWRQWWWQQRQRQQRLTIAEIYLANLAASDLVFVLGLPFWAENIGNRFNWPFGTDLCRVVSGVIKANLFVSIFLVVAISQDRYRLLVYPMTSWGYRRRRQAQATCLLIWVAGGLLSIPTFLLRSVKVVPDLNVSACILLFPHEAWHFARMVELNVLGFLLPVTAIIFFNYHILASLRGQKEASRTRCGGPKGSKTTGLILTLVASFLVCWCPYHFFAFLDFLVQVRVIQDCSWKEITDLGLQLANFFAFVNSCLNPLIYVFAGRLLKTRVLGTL
Summary of the method: as §1

## COc1cc(C)c(S(=O)(=O)N2CCCCC2COCC(=O)N2CCC(OCCCN3CCN(C)CC3)(c3cccnc3)CC2)c(C)c1 (stereo not shown) [Example 33, 2-((1-(4-methoxy-2,6-dimethylphenylsulfonyl)piperidin-2-yl)methoxy)-1-(4-(3-(4-methylpiperazin-1-yl)propoxy)-4-(pyridin-3-yl)piperidin-1-yl)ethanone]
[1]
  inhibition at 10 µM: 98%
[2]
  inhibition at 10 µM: 103%

## COc1cc(C)c(S(=O)(=O)N(C)CCOCC(=O)N2CCC(OCCCN3CCN(C)CC3)(c3cccnc3)CC2)c(C)c1 [Example 34, 4-methoxy-N,2,6-trimethyl-N-(2-(2-(4-(3-(4-methylpiperazin-1-yl)propoxy)-4-(pyridin-3-yl)piperidin-1-yl)-2-oxoethoxy)ethyl)benzenesulfonamide]
[1]
  inhibition at 10 µM: 99%
[2]
  inhibition at 10 µM: 100%

## CN1CCN(CCCOC2(c3cccnc3)CCN(C(=O)CC3CCCCN3S(=O)(=O)c3cccc(C(F)(F)F)c3)CC2)CC1 (stereo not shown) [Example 35, 1-(4-(3-(4-methylpiperazin-1-yl)propoxy)-4-(pyridin-3-yl)piperidin-1-yl)-2-(1-(3-(trifluoromethyl)phenylsulfonyl)piperidin-2-yl)ethanone]
[1]
  inhibition at 10 µM: 21%
[2]
  inhibition at 10 µM: 97%

## Cc1cc(S(=O)(=O)N2CCCCC2CCC(=O)N2CCC(OCCCN3CCN(C)CC3)(c3cccnc3)CC2)c(C)cc1Cl (stereo not shown) [Example 36, 3-(1-(4-chloro-2,5-dimethylphenylsulfonyl)piperidin-2-yl)-1-(4-(3-(4-methylpiperazin-1-yl)propoxy)-4-(pyridin-3-yl)piperidin-1-yl)propan-1-one]
[1]
  inhibition at 10 µM: 85%
[2]
  inhibition at 10 µM: 93%

## CN1CCN(CCCOC2(c3cccnc3)CCN(C(=O)COCC3CCc4ccccc4N3S(=O)(=O)c3ccc(Cl)c(Cl)c3)CC2)CC1 (stereo not shown) [Example 37, 2-((1-(3,4-dichlorophenylsulfonyl)-1,2,3,4-tetrahydroquinolin-2-yl)methoxy)-1-(4-(3-(4-methylpiperazin-1-yl)propoxy)-4-(pyridin-3-yl)piperidin-1-yl)ethanone]
[1]
  inhibition at 10 µM: 77%
[2]
  inhibition at 10 µM: 99%

## CN1CCN(CCOC2(c3cccnc3)CCN(C(=O)COCC3CCc4ccccc4N3S(=O)(=O)c3ccc(Cl)c(Cl)c3)CC2)CC1 (stereo not shown) [Example 38, 2-((1-(3,4-dichlorophenylsulfonyl)-1,2,3,4-tetrahydroquinolin-2-yl)methoxy)-1-(4-(2-(4-methylpiperazin-1-yl)ethoxy)-4-(pyridin-3-yl)piperidin-1-yl)ethanone]
[1]
  inhibition at 10 µM: 74%
[2]
  inhibition at 10 µM: 98%

## CN1CCN(CCCOC2(c3cccnc3)CCN(C(=O)CC(NS(=O)(=O)c3ccc4ccccc4c3)c3ccccc3)CC2)CC1 (stereo not shown) [Example 39, N-(3-(4-(3-(4-methylpiperazin-1-yl)propoxy)-4-(pyridin-3-yl)piperidin-1-yl)-3-oxo-1-phenylpropyl)naphthalene-2-sulfonamide]
[1]
  inhibition at 10 µM: 50%
[2]
  inhibition at 10 µM: 98%

## COc1cc(C)c(S(=O)(=O)N2CCCCC2COCC(=O)N2CCC(OCCCN3CCCC3)(c3cccnc3)CC2)c(C)c1 (stereo not shown) [Example 40, 2-((1-(4-methoxy-2,6-dimethylphenylsulfonyl)piperidin-2-yl)methoxy)-1-(4-(pyridin-3-yl)-4-(3-(pyrrolidin-1-yl)propoxy)piperidin-1-yl)ethanone]
[1]
  inhibition at 10 µM: 99%
[2]
  inhibition at 10 µM: 102%

## COc1cc(C)c(S(=O)(=O)N(C)CCOCC(=O)N2CCC(OCCCN3CCCC3)(c3cccnc3)CC2)c(C)c1 [Example 41, 4-methoxy-N,2,6-trimethyl-N-(2-(2-oxo-2-(4-(pyridin-3-yl)-4-(3-(pyrrolidin-1-yl)propoxy)piperidin-1-yl)ethoxy)ethyl)benzenesulfonamide]
[1]
  inhibition at 10 µM: 100%
[2]
  inhibition at 10 µM: 101%

## O=C(CC1CCCCN1S(=O)(=O)c1cccc(C(F)(F)F)c1)N1CCC(OCCCN2CCCC2)(c2cccnc2)CC1 (stereo not shown) [Example 42, 1-(4-(pyridin-3-yl)-4-(3-(pyrrolidin-1-yl)propoxy)piperidin-1-yl)-2-(1-(3-(trifluoromethyl)phenylsulfonyl)piperidin-2-yl)ethanone]
[1]
  inhibition at 10 µM: 52%
[2]
  inhibition at 10 µM: 48%

## Cc1cc(S(=O)(=O)N2CCCCC2CCC(=O)N2CCC(OCCCN3CCCC3)(c3cccnc3)CC2)c(C)cc1Cl (stereo not shown) [Example 43, 3-(1-(4-chloro-2,5-dimethylphenylsulfonyl)piperidin-2-yl)-1-(4-(pyridin-3-yl)-4-(3-(pyrrolidin-1-yl)propoxy)piperidin-1-yl)propan-1-one]
[1]
  inhibition at 10 µM: 86%
[2]
  inhibition at 10 µM: 67%

## O=C(CC(NS(=O)(=O)c1ccc2ccccc2c1)c1ccccc1)N1CCC(OCCCN2CCCC2)(c2cccnc2)CC1 (stereo not shown) [Example 44, N-(3-oxo-1-phenyl-3-(4-(pyridin-3-yl)-4-(3-(pyrrolidin-1-yl)propoxy)piperidin-1-yl)propyl)naphthalene-2-sulfonamide]
[1]
  inhibition at 10 µM: 95%
[2]
  inhibition at 10 µM: 102%

## O=C(COCC1CCc2ccccc2N1S(=O)(=O)c1ccc(Cl)c(Cl)c1)N1CCC(OCCCN2CCCC2)(c2cccnc2)CC1 (stereo not shown) [Example 45, 2-((1-(3,4-dichlorophenylsulfonyl)-1,2,3,4-tetrahydroquinolin-2-yl)methoxy)-1-(4-(pyridin-3-yl)-4-(3-(pyrrolidin-1-yl)propoxy)piperidin-1-yl)ethanone]
[1]
  inhibition at 10 µM: 76%
[2]
  inhibition at 10 µM: 103%

## COc1cc(C)c(S(=O)(=O)N2CCCC[C@H]2COCC(=O)N2CCC(OCCN3CCCC3)(c3cccnc3)CC2)c(C)c1 [Example 46, (S)-2-((1-(4-methoxy-2,6-dimethylphenylsulfonyl)piperidin-2-yl)methoxy)-1-(4-(pyridin-3-yl)-4-(2-(pyrrolidin-1-yl)ethoxy)piperidin-1-yl)ethanone hydrochloride]
[1]
  inhibition at 10 µM: 100%
[2]
  inhibition at 10 µM: 102%

## O=C(COC[C@@H]1CCCCN1S(=O)(=O)c1ccccc1C(F)(F)F)N1CCC(OCCN2CCCC2)(c2cccnc2)CC1 [Example 47, (S)-1-(4-(pyridin-3-yl)-4-(2-(pyrrolidin-1-yl)ethoxy)piperidin-1-yl)-2-((1-(2-(trifluoromethyl)phenylsulfonyl)piperidin-2-yl)methoxy)ethanone]
[1]
  inhibition at 10 µM: 100%
[2]
  inhibition at 10 µM: 101%

## Cc1cccc(Cl)c1S(=O)(=O)N1CCCC[C@H]1COCC(=O)N1CCC(OCCN2CCCC2)(c2cccnc2)CC1 [Example 48, (S)-2-((1-(2-chloro-6-methylphenylsulfonyl)piperidin-2-yl)methoxy)-1-(4-(pyridin-3-yl)-4-(2-(pyrrolidin-1-yl)ethoxy)piperidin-1-yl)ethanone]
[1]
  inhibition at 10 µM: 99%
[2]
  inhibition at 10 µM: 105%

## COc1cc(C)c(S(=O)(=O)N2CCCC[C@H]2COCC(=O)N2CCC(COCCN3CCCC3)(c3cccnc3)CC2)c(C)c1 [Example 49, (S)-2-((1-(4-methoxy-2,6-dimethylphenylsulfonyl)piperidin-2-yl)methoxy)-1-(4-(pyridin-3-yl)-4-((2-(pyrrolidin-1-yl)ethoxy)methyl)piperidin-1-yl)ethanone]
[1]
  inhibition at 10 µM: 97%
[2]
  inhibition at 10 µM: 104%

## COc1cc(C)c(S(=O)(=O)N2CCCC[C@H]2COCC(=O)N2CCC(OCCN3CCCC3)(c3cccnc3)C2)c(C)c1 (stereo partly drawn) [Example 50, 2-(((S)-1-(4-methoxy-2,6-dimethylphenylsulfonyl)piperidin-2-yl)methoxy)-1-(3-(pyridin-3-yl)-3-(2-(pyrrolidin-1-yl)ethoxy)pyrrolidin-1-yl)ethanone]
[1]
  inhibition at 10 µM: 100%
[2]
  inhibition at 10 µM: 104%

## COc1cc(C)c(S(=O)(=O)N2CCCC[C@H]2COCC(=O)N2CCC(OCCN3CCCC3)(c3cccc(F)c3)CC2)c(C)c1 [Example 51, (S)-1-(4-(3-fluorophenyl)-4-(2-(pyrrolidin-1-yl)ethoxy)piperidin-1-yl)-2-((1-(4-methoxy-2,6-dimethylphenylsulfonyl)piperidin-2-yl)methoxy)ethanone]
[1]
  inhibition at 10 µM: 98%
[2]
  inhibition at 10 µM: 97%

## Cc1cccc(Cl)c1S(=O)(=O)N(CCOCC(=O)N1CCC(OCC[N+]2([O-])CCCC2)(c2cccc(F)c2)CC1)C1CC1 [Example 53, 2-chloro-N-cyclopropyl-N-[2-[2-[4-(3-fluorophenyl)-4-[2-(1-oxido-pyrrolidin-1-ium-1-yl)-ethoxy]-piperidin-1-yl]-2-oxo-ethoxy]-ethyl]-6-methyl-benzenesulfonic acid amide]
[1]
  inhibition at 10 µM: 100%
[2]
  inhibition at 10 µM: 102%
